Measured values: US20250179050A1, “POLYMORPH AS THYROID HORMONE RECEPTOR AGONISTS AND USE THEREOF” (XIZANG HAISCO PHARMACEUTICAL CO., LTD., priority 2022, published 2025)

Assay: Thermal crystal transformation test (hot stage, XRPD)
Type: physicochemical
Conditions: for Results (crystal form after thermal crystal transformation, XRPD): heating rate 10° C./min, holding time 1 min
Protocol: The present invention further provides a method for preparing the polymorph of any one of Form A to Form Z, including: • (1) suspension method: adding a crude free base of the compound of formula I (which can be prepared according to the methods described in WO 2019240938 A1) to a selected single or binary solvent until a suspension is formed and stirring same under suspension at room temperature to 50° C. for a period of time (e.g., 1 h to 3 days, or 2 h to 24 h, or 2 h to 12 h, or 3 h to 5 h), and then centrifuging and separating the suspension, followed by drying, to obtain the product; or • (2) Anti-solvent crystallization method: adding a crude free base of the compound of formula I to an appropriate amount of a good solvent until completely dissolved, taking an amount of the solution and dropwise adding same to a poor solvent or dropwise adding a poor solvent to the solution, and stirring same to precipitate a solid, followed by separation and drying to obtain the product; or • (3) cooling method: adding a crude free base of the compound of formula I to an appropriate amount of a solvent at 50-80° C. until the solid is just completely dissolved, and transferring the solution to an environment at room temperature for cooling, followed by leaving to stand or crystallization under stirring, separation and drying to obtain the product; or • (4) vapor diffusion method: dropwise adding an appropriate amount of a good solvent to an amount of a crude free base of the compound of formula I at room temperature to completely dissolve the sample or formulating same as a saturated solution of a good solvent; and separately taking an amount of the solution, and leaving the clear solution to stand in a poor solvent atmosphere at room temperature until a solid precipitates out, followed by separation, to obtain the product; or • (5) thermal crystal transformation method: placing an amount of the sample on a glass plate on a hot stage, heating same to the target temperature at a rate (e.g., 5-20° C./min, or 10-15° C./min), and maintaining the temperature for a period of time (e.g., 0.5-5 min, or 1-3 min, or 1-2 min), followed by naturally cooling down to room temperature to obtain a solid.
The different crystal forms, as raw materials, were heated to the target temperature on a hot table and held for 1 min, and cooled to room temperature to obtain solids for the XRPD test.

## [2H]C([2H])([2H])[C@@H]1CCc2c(Oc3c(Cl)cc(-n4nc(C#N)c(=O)[nH]c4=O)cc3Cl)n[nH]c(=O)c21 [Form A, (R)-2-(3,5-dichloro-4-((7-(methyl-d3)-1-oxo-2,5,6,7-tetrahydro-1H-cyclopenta [d]pyridazin-4-yl)oxy)phenyl)-3,5-dioxo-2,3,4,5-tetrahydro-1,2,4-triazine-6-carbonitrile]
Heated to 150° C.
  crystal form after thermal crystal transformation: Form A
Heated to 300° C.
  crystal form after thermal crystal transformation: Form C
Target temperature 150° C.
  Results (crystal form after thermal crystal transformation, XRPD): Form A
Target temperature 300° C.
  Results (crystal form after thermal crystal transformation, XRPD): Form C

## [2H]C([2H])([2H])[C@@H]1CCc2c(Oc3c(Cl)cc(-n4nc(C#N)c(=O)[nH]c4=O)cc3Cl)n[nH]c(=O)c21 [Form E, (R)-2-(3,5-dichloro-4-((7-(methyl-d3)-1-oxo-2,5,6,7-tetrahydro-1H-cyclopenta [d]pyridazin-4-yl)oxy)phenyl)-3,5-dioxo-2,3,4,5-tetrahydro-1,2,4-triazine-6-carbonitrile]
By desolvation
  crystal form after thermal crystal transformation: Form C
Target temperature 180° C.
  Results (crystal form after thermal crystal transformation, XRPD): Form C

## [2H]C([2H])([2H])[C@@H]1CCc2c(Oc3c(Cl)cc(-n4nc(C#N)c(=O)[nH]c4=O)cc3Cl)n[nH]c(=O)c21 [Form F, (R)-2-(3,5-dichloro-4-((7-(methyl-d3)-1-oxo-2,5,6,7-tetrahydro-1H-cyclopenta [d]pyridazin-4-yl)oxy)phenyl)-3,5-dioxo-2,3,4,5-tetrahydro-1,2,4-triazine-6-carbonitrile]
Heated to 230° C. or more
  crystal form after thermal crystal transformation: Form C
Target temperature 230° C.
  Results (crystal form after thermal crystal transformation, XRPD): Form C

## [2H]C([2H])([2H])[C@@H]1CCc2c(Oc3c(Cl)cc(-n4nc(C#N)c(=O)[nH]c4=O)cc3Cl)n[nH]c(=O)c21 [Form J, (R)-2-(3,5-dichloro-4-((7-(methyl-d3)-1-oxo-2,5,6,7-tetrahydro-1H-cyclopenta [d]pyridazin-4-yl)oxy)phenyl)-3,5-dioxo-2,3,4,5-tetrahydro-1,2,4-triazine-6-carbonitrile]
Target temperature 160° C.
  Results (crystal form after thermal crystal transformation, XRPD): Form C

## [2H]C([2H])([2H])[C@@H]1CCc2c(Oc3c(Cl)cc(-n4nc(C#N)c(=O)[nH]c4=O)cc3Cl)n[nH]c(=O)c21 [Form K, (R)-2-(3,5-dichloro-4-((7-(methyl-d3)-1-oxo-2,5,6,7-tetrahydro-1H-cyclopenta [d]pyridazin-4-yl)oxy)phenyl)-3,5-dioxo-2,3,4,5-tetrahydro-1,2,4-triazine-6-carbonitrile]
Heated to 260° C. or more
  crystal form after thermal crystal transformation: Form C

## [2H]C([2H])([2H])[C@@H]1CCc2c(Oc3c(Cl)cc(-n4nc(C#N)c(=O)[nH]c4=O)cc3Cl)n[nH]c(=O)c21 [Form L, (R)-2-(3,5-dichloro-4-((7-(methyl-d3)-1-oxo-2,5,6,7-tetrahydro-1H-cyclopenta [d]pyridazin-4-yl)oxy)phenyl)-3,5-dioxo-2,3,4,5-tetrahydro-1,2,4-triazine-6-carbonitrile]
Heated to 100° C.
  crystal form after thermal crystal transformation: Form A
Heated to 190° C.
  crystal form after thermal crystal transformation: Form C
Target temperature 100° C.
  Results (crystal form after thermal crystal transformation, XRPD): Form A
Target temperature 190° C.
  Results (crystal form after thermal crystal transformation, XRPD): Form C

## [2H]C([2H])([2H])[C@@H]1CCc2c(Oc3c(Cl)cc(-n4nc(C#N)c(=O)[nH]c4=O)cc3Cl)n[nH]c(=O)c21 [Form M, (R)-2-(3,5-dichloro-4-((7-(methyl-d3)-1-oxo-2,5,6,7-tetrahydro-1H-cyclopenta [d]pyridazin-4-yl)oxy)phenyl)-3,5-dioxo-2,3,4,5-tetrahydro-1,2,4-triazine-6-carbonitrile]
Target temperature 260° C.
  Results (crystal form after thermal crystal transformation, XRPD): Form C

## [2H]C([2H])([2H])[C@@H]1CCc2c(Oc3c(Cl)cc(-n4nc(C#N)c(=O)[nH]c4=O)cc3Cl)n[nH]c(=O)c21 [Form N, (R)-2-(3,5-dichloro-4-((7-(methyl-d3)-1-oxo-2,5,6,7-tetrahydro-1H-cyclopenta [d]pyridazin-4-yl)oxy)phenyl)-3,5-dioxo-2,3,4,5-tetrahydro-1,2,4-triazine-6-carbonitrile]
Heated to 235° C. or more
  crystal form after thermal crystal transformation: Form C with a slightly less crystallinity
Target temperature 235° C.
  Results (crystal form after thermal crystal transformation, XRPD): Form C

## [2H]C([2H])([2H])[C@@H]1CCc2c(Oc3c(Cl)cc(-n4nc(C#N)c(=O)[nH]c4=O)cc3Cl)n[nH]c(=O)c21 [Form R, (R)-2-(3,5-dichloro-4-((7-(methyl-d3)-1-oxo-2,5,6,7-tetrahydro-1H-cyclopenta [d]pyridazin-4-yl)oxy)phenyl)-3,5-dioxo-2,3,4,5-tetrahydro-1,2,4-triazine-6-carbonitrile]
Target temperature 200° C.
  Results (crystal form after thermal crystal transformation, XRPD): Form C

## [2H]C([2H])([2H])[C@@H]1CCc2c(Oc3c(Cl)cc(-n4nc(C#N)c(=O)[nH]c4=O)cc3Cl)n[nH]c(=O)c21 [Form V, (R)-2-(3,5-dichloro-4-((7-(methyl-d3)-1-oxo-2,5,6,7-tetrahydro-1H-cyclopenta [d]pyridazin-4-yl)oxy)phenyl)-3,5-dioxo-2,3,4,5-tetrahydro-1,2,4-triazine-6-carbonitrile]
Heated to 150° C.
  crystal form after thermal crystal transformation: Form V
